Test results reported in patent US20230295115A1, “SUBSTITUTED ISOQUINOLINYLMETHYL AMIDES, ANALOGUES THEREOF, AND METHODS USING SAME” (priority 2020, published 2023).

What follows are molecules tested on HBV rcDNA (assay: HepDE19 assay with bDNA quantitation of HBV rcDNA). Conditions: HepDE19 cells, 7 day incubation, rcDNA measured by Quantigene 2.0 bDNA assay, top concentration 25 μM; read-out: DE-19bDNA EC50.
Format: cell-based, hepatitis B virus (HBV)
Procedure: HepDE19 assay with bDNA quantitation of HBV rcDNA:
HepDE19 (50,000 cells/well) were plated in 96-well collagen-coated tissue-culture treated microtiter plates in DMEM/F12 medium supplemented with 10% fetal bovine serum, 1% penicillin-streptomycin and 1 μg/mL tetracycline and incubated in a humidified incubator at 37° C. and 5% CO2 overnight. Next day, the cells were switched to fresh medium without tetracycline and incubated for 4 hours at 37° C. and 5% CO2. […] The final DMSO concentration in the assay was 0.5%. The plates were incubated for 7 days in a humidified incubator at 37° C. and 5% CO2. Following a 7 day-incubation, the level of rcDNA present in the inhibitor-treated wells was measured using a Quantigene 2.0 bDNA assay kit (Affymetrix, Santa Clara, CA) with HBV specific custom probe set and manufacturers instructions. Concurrently, the effect of compounds on cell viability was assessed using replicate plates, plated at a density of 5,000 cells/well and incubated for 4 days, to determine the ATP content as a measure of cell viability using the cell-titer glo reagent (CTG; Promega Corporation, Madison, WI) as per manufacturer's instructions.

Row | Compound | EC50
1 | CC(c1c[nH]c(=O)c2cc(F)c(F)cc12)N(C)C(=O)c1cc2ccccc2[nH]1 (single isomer, unassigned) [Compound 1, N-(1-(6,7-Difluoro-1-oxo-1,2-dihydroisoquinolin-4-yl)ethyl)-N-methyl-1H-indole-2-carboxamide] | 2.5 µM
2 | CC(c1c[nH]c(=O)c2cc(F)c(F)cc12)N(C)C(=O)c1cc2ccccc2[nH]1 (single isomer, unassigned) [Compound 2, N-(1-(6,7-Difluoro-1-oxo-1,2-dihydroisoquinolin-4-yl)ethyl)-N-methyl-1H-indole-2-carboxamide] | 0.02 µM
3 | CC(C)CN(C(=O)c1cc2ccccc2[nH]1)C(C)c1c[nH]c(=O)c2cc(F)c(F)cc12 (single isomer, unassigned) [Compound 3, N-(1-(6,7-Difluoro-1-oxo-1,2-dihydroisoquinolin-4-yl)ethyl)-N-isobutyl-1H-indole-2-carboxamide] | 0.67 µM
4 | CC(C)CN(C(=O)c1cc2ccccc2[nH]1)C(C)c1c[nH]c(=O)c2cc(F)c(F)cc12 (single isomer, unassigned) [Compound 4, N-(1-(6,7-Difluoro-1-oxo-1,2-dihydroisoquinolin-4-yl)ethyl)-N-isobutyl-1H-indole-2-carboxamide] | 0.01 µM
5 | CCN(C(=O)c1cc2ccccc2[nH]1)C(C)c1c[nH]c(=O)c2cc(F)c(F)cc12 (single isomer, unassigned) [Compound 5, N-(1-(6,7-Difluoro-1-oxo-1,2-dihydroisoquinolin-4-yl)ethyl)-N-ethyl-1H-indole-2-carboxamide] | 1.7 µM
6 | CCN(C(=O)c1cc2ccccc2[nH]1)C(C)c1c[nH]c(=O)c2cc(F)c(F)cc12 (single isomer, unassigned) [Compound 6, N-(1-(6,7-Difluoro-1-oxo-1,2-dihydroisoquinolin-4-yl)ethyl)-N-ethyl-1H-indole-2-carboxamide] | 0.01 µM
7 | CC(c1c[nH]c(=O)c2cc(F)c(F)cc12)N(C)C(=O)c1cc2c(F)cccc2[nH]1 (single isomer, unassigned) [Compound 7, N-(1-(6,7-Difluoro-1-oxo-1,2-dihydroisoquinolin-4-yl)ethyl)-4-fluoro-N-methyl-1H-indole-2-carboxamide] | 1.7 µM
8 | CC(c1c[nH]c(=O)c2cc(F)c(F)cc12)N(C)C(=O)c1cc2c(F)cccc2[nH]1 (single isomer, unassigned) [Compound 8, N-(1-(6,7-Difluoro-1-oxo-1,2-dihydroisoquinolin-4-yl)ethyl)-4-fluoro-N-methyl-1H-indole-2-carboxamide] | 0.02 µM
9 | CC(c1c[nH]c(=O)c2cc(F)c(F)cc12)N(C)C(=O)c1cc2ccc(F)cc2[nH]1 (single isomer, unassigned) [Compound 11, N-(1-(6,7-Difluoro-1-oxo-1,2-dihydroisoquinolin-4-yl)ethyl)-6-fluoro-N-methyl-1H-indole-2-carboxamide] | 1.2 µM
10 | CC(c1c[nH]c(=O)c2cc(F)c(F)cc12)N(C)C(=O)c1cc2ccc(F)cc2[nH]1 (single isomer, unassigned) [Compound 12, N-(1-(6,7-Difluoro-1-oxo-1,2-dihydroisoquinolin-4-yl)ethyl)-6-fluoro-N-methyl-1H-indole-2-carboxamide] | 0.02 µM
11 | CC(c1c[nH]c(=O)c2cc(F)c(F)cc12)N(C)C(=O)c1cc2cccc(F)c2[nH]1 (single isomer, unassigned) [Compound 13, N-(1-(6,7-Difluoro-1-oxo-1,2-dihydroisoquinolin-4-yl)ethyl)-7-fluoro-N-methyl-1H-indole-2-carboxamide] | 3.4 µM
12 | CC(c1c[nH]c(=O)c2cc(F)c(F)cc12)N(C)C(=O)c1cc2cccc(F)c2[nH]1 (single isomer, unassigned) [Compound 14, N-(1-(6,7-Difluoro-1-oxo-1,2-dihydroisoquinolin-4-yl)ethyl)-7-fluoro-N-methyl-1H-indole-2-carboxamide] | 0.02 µM
13 | CC(c1c[nH]c(=O)c2cc(F)c(F)cc12)N(C)C(=O)c1cc2cc(F)c(F)cc2[nH]1 (single isomer, unassigned) [Compound 15, N-(1-(6,7-Difluoro-1-oxo-1,2-dihydroisoquinolin-4-yl)ethyl)-5,6-difluoro-N-methyl-1H-indole-2-carboxamide] | 1.6 µM

Same assay, conditions: Hepatitis B virus, HepDE19, 168 h, HepDE19 cells, 7 day incubation, rcDNA measured by Quantigene 2.0 bDNA assay, top concentration 25 μM; read-out: DE-19bDNA EC50

Row | Compound | EC50
14 | CC(c1c[nH]c(=O)c2cc(F)c(F)cc12)N(C)C(=O)c1cc2c(F)c(F)ccc2[nH]1 (racemic) [Compound 29, N-(1-(6,7-Difluoro-1-oxo-1,2-dihydroisoquinolin-4-yl)ethyl)-4,5-difluoro-N-methyl-1H-indole-2-carboxamide] | 0.04 µM
15 | CC(c1c[nH]c(=O)c2cc(F)c(F)cc12)N(C)C(=O)c1[nH]c2ccccc2c1Cl (racemic) [Compound 60, 3-Chloro-N-(1-(6,7-difluoro-1-oxo-1,2-dihydroisoquinolin-4-yl)ethyl)-N-methyl-1H-indole-2-carboxamide] | 0.8 µM
16 | CC(C)CN(C(=O)c1cc2ccccn2c1)C(C)c1c[nH]c(=O)c2cc(F)c(F)cc12 (racemic) [Compound 116, N-(1-(6,7-Difluoro-1-oxo-1,2-dihydroisoquinolin-4-yl)ethyl)-N-isobutylindolizine-2-carboxamide] | 0.08 µM
17 | CC(C)CN(C(=O)c1ccc(C(F)(F)F)c(F)c1)C(C)c1c[nH]c(=O)c2cc(F)c(F)cc12 (racemic) [Compound 117, N-(1-(6,7-Difluoro-1-oxo-1,2-dihydroisoquinolin-4-yl)ethyl)-3-fluoro-N-isobutyl-4-(trifluoromethyl)benzamide] | 0.24 µM
18 | CC(C)CN(C(=O)c1ccc(C(F)(F)F)c(F)c1)C(C)c1c[nH]c(=O)c2c(F)c(F)ccc12 (racemic) [Compound 118, N-(1-(7,8-Difluoro-1-oxo-1,2-dihydroisoquinolin-4-yl)ethyl)-3-fluoro-N-isobutyl-4-(trifluoromethyl)benzamide] | 2.23 µM
19 | CC(c1c[nH]c(=O)c2cc(F)c(F)cc12)N(C)C(=O)C(=O)NC1CC1 (racemic) [Compound 143, N1-Cyclopropyl-N2-(1-(6,7-difluoro-1-oxo-1,2-dihydroisoquinolin-4-yl)ethyl)-N2-methyloxalamide] | ≥ 25 µM
20 | CC(c1c[nH]c(=O)c2cc(F)c(F)cc12)N(C)C(=O)C(=O)Nc1ccc(F)c(Cl)c1 (racemic) [Compound 144, N1-(3-Chloro-4-fluorophenyl)-N2-(1-(6,7-difluoro-1-oxo-1,2-dihydroisoquinolin-4-yl)ethyl)-N2-methyloxalamide] | 1.44 µM

Same assay, conditions: Hepatitis B virus, HepDE19, 168 h, read-out: DE-19bDNA EC50 (μM), HepDE19 cells, 7 day incubation, rcDNA measured by Quantigene 2.0 bDNA assay, top concentration 25 μM

Row | Compound | EC50
21 | CC(c1c[nH]c(=O)c2cc(F)c(F)cc12)N(C)C(=O)Cc1cc2ccccc2[nH]1 (racemic) [Compound 59, N-(1-(6,7-Difluoro-1-oxo-1,2-dihydroisoquinolin-4-yl)ethyl)-2-(1H-indol-2-yl)-N-methylacetamide] | 0.91 µM

Same assay, conditions: read-out: DE-19bDNA EC50; HepDE19 cells, 7 day incubation, rcDNA measured by Quantigene 2.0 bDNA assay, top concentration 25 μM

Row | Compound | EC50
22 | CC(c1c[nH]c(=O)c2cc(F)c(F)cc12)N(C)C(=O)c1cc2cc(F)ccc2[nH]1 (single isomer, unassigned) [Compound 9, N-(1-(6,7-Difluoro-1-oxo-1,2-dihydroisoquinolin-4-yl)ethyl)-5-fluoro-N-methyl-1H-indole-2-carboxamide] | 1.6 µM
23 | CC(c1c[nH]c(=O)c2cc(F)c(F)cc12)N(C)C(=O)c1cc2cc(F)ccc2[nH]1 (single isomer, unassigned) [Compound 10, N-(1-(6,7-Difluoro-1-oxo-1,2-dihydroisoquinolin-4-yl)ethyl)-5-fluoro-N-methyl-1H-indole-2-carboxamide] | 0.02 µM
